Reference: patent publication US10358446B2, “Bruton's tyrosine kinase inhibitors” (Zibo Biopolar Changsheng Pharmaceutical Co. Ltd., priority 2015, dated 2019)
pIC50: −log10 of the molar value.

target: BTK (Homo sapiens (Human), UniProt Q06187); experiment: Btk kinase assay (HTRF); format: biochemical; conditions: [ATP]=80 μM, BTK=3.4 nM; read-out: BTK Inhibition
Method: Btk kinase activity was determined using a homogenous time resolved fluorescence (HTRF) methodology. Measurements were performed in a reaction volume of 15 μL using 384-well assay plates. Kinase enzyme, inhibitor, ATP and 1 μM peptide substrate were incubated in a reaction buffer compose of Hepes 50 mM (pH7.0), NaN3 0.02%, BSA 0.01%, Orthocanadate 0.1 mM. After one hour, the kinase reaction was quenched by the addition of […] antibody and XL-665 in 1× Detection buffer containing 60 mM EDTA (Cisbio), and the mixture was allowed to incubate for one hour. The HTRF signal was measured on a multimode plate reader (EnVision® Multilabel Reader, Perkin Elmer) with an excitation wavelength (λEx) of 330 nm and detection wavelengths (λEm) of 615 and 665 nrm. Activity was determined by the ratio of the fluorescence at 665 nm to that at 615 nm. For each compound, enzyme activity as measured at various concentrations of compound, Negative control reactions were performed in the absence of inhibitor in two replicates and eight no enzyme controls were used to determine baseline fluorescence levels. IC50s were obtained according to the equation: […] For BTK assay, [ATP]=80 μM, BTK=3.4 nM.

Sequence of BTK (Q06187 whole entry, species assumed): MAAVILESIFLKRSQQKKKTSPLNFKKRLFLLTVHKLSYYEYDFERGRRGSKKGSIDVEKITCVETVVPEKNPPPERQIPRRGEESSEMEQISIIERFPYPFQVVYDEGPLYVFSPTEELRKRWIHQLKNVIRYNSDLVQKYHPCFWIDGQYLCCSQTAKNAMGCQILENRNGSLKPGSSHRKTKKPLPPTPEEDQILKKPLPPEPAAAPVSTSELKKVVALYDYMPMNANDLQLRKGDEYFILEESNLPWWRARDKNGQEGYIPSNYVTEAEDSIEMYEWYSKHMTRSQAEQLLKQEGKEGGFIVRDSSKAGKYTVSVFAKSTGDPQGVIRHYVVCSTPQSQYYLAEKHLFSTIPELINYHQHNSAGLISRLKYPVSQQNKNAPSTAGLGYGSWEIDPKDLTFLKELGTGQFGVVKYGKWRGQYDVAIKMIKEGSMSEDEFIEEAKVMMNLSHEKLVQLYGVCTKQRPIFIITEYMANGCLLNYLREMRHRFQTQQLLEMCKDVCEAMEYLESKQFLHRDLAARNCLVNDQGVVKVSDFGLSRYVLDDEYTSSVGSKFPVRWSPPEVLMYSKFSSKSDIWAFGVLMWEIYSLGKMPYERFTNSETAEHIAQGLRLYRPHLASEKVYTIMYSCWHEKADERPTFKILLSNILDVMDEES

| SMILES | pIC50 |
| --- | --- |
| CC(=O)N1CC[C@@H](n2c(=O)n(-c3ccc(Oc4ccccc4)cc3)c3cnccc32)C1 [Example 32, (R)-1-(1-acetylpyrrolidin-3-yl)-3-(4-phenoxyphenyl)-1H-imidazo[4,5-c]pyridin-2(3H)-one] | ≤ 5.00 |
| C=CC(=O)Nc1cccc(-n2c(=O)n(-c3ccc(Oc4cccc(F)c4F)cc3)c3cnccc32)c1 [Example 125, N-(3-(3-(4-(2,3-difluorophenoxy)phenyl)-2-oxo-2,3-dihydro-1H-imidazo[4,5-c]pyridin-1-yl)phenyl)acrylamide] | 7.00 to 8.00 |
| C=CC(=O)N1CC[C@@H](n2c(=O)n(-c3ccc(Oc4ccc(C(F)(F)F)cc4)c(Cl)c3)c3cnccc32)C1 [Example 43, (R)-1-(1-acryloylpyrrolidin-3-yl)-3-(3-chloro-4-(4-(trifluoromethyl)phenoxy)phenyl)-1H-imidazo[4,5-c]pyridin-2(3H)-one] | 6.00 to 7.00 |
| C=CC(=O)N1CCC[C@@H](n2c(=O)n(-c3ccc(Oc4cccc(F)c4)cc3)c3cnccc32)C1 [Example 117, (R)-1-(1-acryloylpiperidin-3-yl)-3-(4-(3-fluorophenoxy)phenyl)-1H-imidazo [4,5-c]pyridin-2(3H)-one] | 7.00 to 8.00 |
| C=CC(=O)N1CCC[C@@H](n2c(=O)n(-c3ccc(Oc4cccc(F)c4OC)cc3)c3cnccc32)C1 [Example 140, (R)-1-(1-acryloylpiperidin-3-yl)-3-(4-(3-fluoro-2-methoxyphenoxy)phenyl)-1H-imidazo[4,5-c]pyridin-2(3H)-one] | 6.00 to 7.00 |
| C=CC(=O)Nc1cccc(-n2c(=O)n(-c3cccc(Oc4cccc(C)c4)c3)c3cnccc32)c1 [Example 152, N-(3-(2-oxo-3-(3-(m-tolyloxy)phenyl)-2,3-dihydro-1H-imidazo[4,5-c]pyridin-1-yl)phenyl)acrylamide] | 7.00 to 8.00 |
| C=CC(=O)Nc1cccc(-n2c(=O)n(-c3ccc(Oc4cccc(OC(F)(F)F)c4)cc3)c3cnccc32)c1 [Example 70, N-(3-(2-oxo-3-(4-(3-(trifluoromethoxy)phenoxy)phenyl)-2,3-dihydro-1H-imidazo[4,5-c]pyridin-1-yl)phenyl)acrylamide] | 5.00 to 6.00 |
| C=CC(=O)N1CC[C@@H](n2c(=O)n(-c3ccc(Oc4ccc(OC)cc4)c(Cl)c3)c3cnccc32)C1 [Example 42, (R)-1-(1-acryloylpyrrolidin-3-yl)-3-(3-chloro-4-(4-methoxyphenoxy)phenyl)-1H-imidazo[4,5-c]pyridine-2(3H)-one] | 7.00 to 8.00 |
| C=CC(=O)Nc1cccc(-n2c(=O)n(-c3ccc(Oc4ccccc4)cc3)c3cccnc32)c1 [Example 116, N-(3-(2-oxo-1-(4-phenoxyphenyl)-1H-imidazo[4,5-b]pyridin-3(2H)-yl)phenyl)acrylamide] | 6.00 to 7.00 |
| C=CC(=O)N1CCC[C@@H](n2c(=O)n(-c3ccc(Oc4ccccc4)c(Cl)c3)c3cnccc32)C1 [Example 107, (R)-1-(1-acryloylpiperidin-3-yl)-3-(3-chloro-4-phenoxyphenyl)-1H-imidazo[4,5-c]pyridin-2(3H)-one] | 7.00 to 8.00 |
| C=CC(=O)Nc1cccc(-n2c(=O)n(-c3ccc(Oc4cccc(OC(C)C)c4)cc3)c3cnccc32)c1 [Example 85, N-(3-(3-(4-(3-isopropoxyphenoxy)phenyl)-2-oxo-2,3-dihydro-1H-imidazo[4,5-c]pyridin-1-yl)phenyl)acrylamide] | 7.00 to 8.00 |
| C=CC(=O)N1CC[C@@H](n2c(=O)n(-c3ccc(Oc4cccc(F)c4Cl)cc3)c3cnccc32)C1 [Example 102, (R)-1-(1-acryloylpyrrolidin-3-yl)-3-(4-(2-chloro-3-fluorophenoxy)phenyl)-1,3-dihydro-2H-imidazo[4,5-c]pyridin-2-one] | 7.00 to 8.00 |
| O=C(/C=C/N1CCOCC1)N1CC[C@@H](n2c(=O)n(-c3ccc(Oc4ccccc4)c(Cl)c3)c3cnccc32)C1 [Example 18, (R,E)-3-(3-chloro-4-phenoxyphenyl)-1-(1-(3-morpholinoacryloyl)pyrolidin-3-yl)-1H-imidazo[4,5-c]-pyridin-2(3H)-one] | 6.00 to 7.00 |
| C=CS(=O)(=O)N1CC[C@@H](n2c(=O)n(-c3ccc(Oc4ccccc4)c(Cl)c3)c3cnccc32)C1 [Example 23, (R)-3-(3-chloro-4-phenoxyphenyl)-1-(1-(vinylsulfonyl)pyrrolidin-3-yl)-1H-imidazo[4,5-c]pyridin-2(3H)-one] | 7.00 to 8.00 |

The next lines start with the values.

| pIC50 | SMILES |
| --- | --- |
| ≤ 5.00 | NC(=O)C(=O)N1CCCC(n2c(=O)n(-c3ccc(Oc4ccccc4)cc3)c3cnccc32)C1 (stereo not drawn) [Example 194, 2-oxo-2-(3-(2-oxo-3-(4-phenoxyphenyl)-2,3-dihydro-1H-imidazo[4,5-c]pyridin-1-yl)piperidin-1-yl)acetamide] |
| 6.00 to 7.00 | C=CC(=O)Nc1cccc(-n2c(=O)n(-c3ccc(OCc4ccccc4F)cc3)c3cnccc32)c1 [Example 228, N-(3-(3-(4-((2-fluorobenzyl)oxy)phenyl)-2-oxo-2,3-dihydro-1H-imidazo[4,5-c]pyridin-1-yl)phenyl)acrylamide] |
| 7.00 to 8.00 | C=CC(=O)Nc1cccc(-n2c(=O)n(-c3ccc(OCc4cccc(C(F)(F)F)c4)cc3)c3cnccc32)c1 [Example 240, N-(3-(2-oxo-3-(4-((3-(trifluoromethyl)benzyl)oxy)phenyl)-2,3-dihydro-1H-imidazo[4,5-c]pyridin-1-yl)phenyl)acrylamide] |
| 6.00 to 7.00 | C=CC(=O)N1CC[C@@H](n2c(=O)n(-c3ccc(OCc4ccc(Cl)cc4Cl)c(Cl)c3)c3cnccc32)C1 [Example 208, (R)-1-(1-acryloylpyrrolidin-3-yl)-3-(3-chloro-4-((2,4-dichlorobenzyl)oxy)phenyl)-1H-imidazo[4,5-c]pyridin-2(3H)-one] |
| 6.00 to 7.00 | C=CC(=O)Nc1cccc(-n2c(=O)n(-c3ccc(Oc4ccc(C#N)cc4)cc3)c3cnccc32)c1 [Example 162, N-(3-(3-(4-(4-cyanophenoxy)phenyl)-2-oxo-2,3-dihydro-1H-imidazo[4,5-c]pyridin-1-yl)phenyl)acrylamide] |
| 6.00 to 7.00 | CC#CC(=O)N1CCC[C@@H](n2c(=O)n(-c3ccc(Oc4cccc(OC)c4F)cc3)c3cncc(C)c32)C1 [Example 171, (R)-1-(1-(but-2-ynoyl)piperidin-3-yl)-3-(4-(2-fluoro-3-methoxyphenoxy)phenyl)-7-methyl-1H-imidazo[4,5-c]pyridin-2(3H)-one] |
| 5.00 to 6.00 | C=CC(=O)N1CC[C@@H](n2c(=O)n(-c3ccc(OCc4ccc(Cl)c(Cl)c4)c(Cl)c3)c3cnccc32)C1 [Example 215, (R)-1-(1-acryloylpyrrolidin-3-yl)-3-(3-chloro-4-((3,4-dichlorobenzyl)oxy)phenyl)-1H-imidazo[4,5-c]pyridin-2(3H)-one] |
| ≤ 5.00 | C=CC(=O)N1CC[C@H](n2c(=O)n(-c3ccc(Oc4ccccc4)cc3)c3c(/C(N)=N/O)nccc32)C1 [Example 179, (S,Z)-1-(1-acryloylpyrrolidin-3-yl)-N′-hydroxy-2-oxo-3-(4-phenoxyphenyl)-2,3-dihydro-1H-imidazo[4,5-c] pyridine-4-carboximidamide] |
| ≤ 5.00 | C=CC(=O)Nc1cccc(-n2c(=O)n(-c3ccc(NC(=O)c4cccc(C)c4)cc3)c3cnccc32)c1 [Example 267, N-(4-(1-(3-acrylamidophenyl)-2-oxo-1H-imidazo[4,5-c]pyridin-3(2H)-yl)phenyl)-3-methylbenzamide] |
| ≤ 5.00 | C=CC(=O)N1CC[C@@H](n2c(=O)n(-c3ccc(Oc4ccccc4)cc3)c3c(OC)nccc32)C1 [Example 182, (R)-1-(1-acryloylpyrrolidin-3-yl)-4-methoxy-3-(4-phenoxyphenyl)-1H-imidazo[4,5-c]pyridin-2(3H)-one] |
| 6.00 to 7.00 | CC(C)(C)/C=C(/C#N)C(=O)N1CCCC1Cn1c(=O)n(-c2ccc(Oc3ccccc3)cc2)c2cnccc21 (stereo not drawn) [Example 180, 4,4-Dimethyl-2-{2-[2-oxo-3-(4-phenoxy-phenyl)-2,3-dihydro-imidazo[4,5-c]pyridin-1-ylmethyl]-pyrrolidine-1-carbonyl}-pent-2-enenitrile] |
| ≥ 8.00 | C=CC(=O)N1CCC[C@@H](n2c(=O)n(-c3ccc(Oc4cccc(OC)c4F)cc3)c3cncc(OCC)c32)C1 [Example 167, (R)-1-(1-acryloylpiperidin-3-yl)-7-ethoxy-3-(4-(2-fluoro-3-methoxyphenoxy)phenyl)-1H-imidazo [4,5-c]pyridin-2(3H)-one] |
| 6.00 to 7.00 | C=CC(=O)N1CC[C@@H](n2c(=O)n(-c3ccc(OCc4ccc(Cl)c(Cl)c4)cc3)c3cnccc32)C1 [Example 198, (R)-1-(1-acryloylpyrrolidin-3-yl)-3-(4-((3,4-dichlorobenzyl)oxy)phenyl)-1H-imidazo[4,5-c]pyridin-2(3H)-one] |
| 6.00 to 7.00 | C=CC(=O)Nc1cccc(-n2c(=O)n(-c3ccc(Oc4ccc(OC)c(F)c4)cc3)c3cnccc32)c1 [Example 161, N-(3-(3-(4-(3-fluoro-4-methoxyphenoxy)phenyl)-2-oxo-2,3-dihydro-1H-imidazo[4,5-c]pyridin-1-yl)phenyl)acrylamide] |
| 7.00 to 8.00 | C=CC(=O)N1CC[C@@H](n2c(=O)n(-c3cccc(Oc4ccccc4)c3)c3cnccc32)C1 [Example 155, (R)-1-(1-acryloylpyrrolidin-3-yl)-3-(3-phenoxyphenyl)-1H-imidazo[4,5-c]pyridin-2(3H)-one] |
| 5.00 to 6.00 | C=CC(=O)Nc1cccc(-n2c(=O)n(-c3ccc(C(=O)Nc4cccc(C)c4)cc3)c3cnccc32)c1 [Example 255, 4-(1-(3-acrylamidophenyl)-2-oxo-1H-imidazo[4,5-c]pyridin-3(2H)-yl)-N-(m-tolyl)benzamide] |
